The results in this text go back to patent US10703756B2, “Pyrrolo[2,3-D]pyrimidinyl, pyrrolo[2,3-B]pyrazinyl, pyrrolo[2,3-B]pyridinyl acrylamides and epoxides thereof” (Pfizer Inc., priority 2015, dated 2020).

SMILES strings stand for the structures.

Data set [1] in a line: Stability of JAK3 Covalent Inhibitors in Human Whole Blood. Type of data set: in vitro ADME. The settings on record: both sexes, 1 μM test compound, 37° C., 180 min incubation, read-out: Human blood stability t1/2. The gist of the method:
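Compound at 1 μM final incubated in duplicate at 37° C for 180 min in fresh K2-EDTA whole blood […]. Samples quenched in acetonitrile with internal standard; LC-MS/MS peak area ratios gave % parent remaining over time.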

The subject of data set [2] is IL-15 induced STAT5 phosphorylation in human whole blood lymphocytes. In words: HWB IL-15 Induced STAT5 Phosphorylation Assay. Type of data set: cell-based. The settings on record: Lymphocyte, IL-15 final 50 ng/ml, read-out: HWB_IL15 pSTAT5 IC50. The gist of the method:
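Heparinised human whole blood preincubated with compound (0.2% DMSO final) 45 min at 37° C, then stimulated with human IL-15 (50 ng/ml final) for 15 min. After lyse/fix and Perm Buffer III permeabilisation, stained overnight at 4° C with AlexaFluor647 anti-phospho-STAT5; read by flow cytometry gated on total lymphocytes.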

The target of another data set is T1, JAK3 enzyme (Homo sapiens, UniProt P52333).
T1 sequence (P52333 1-1124): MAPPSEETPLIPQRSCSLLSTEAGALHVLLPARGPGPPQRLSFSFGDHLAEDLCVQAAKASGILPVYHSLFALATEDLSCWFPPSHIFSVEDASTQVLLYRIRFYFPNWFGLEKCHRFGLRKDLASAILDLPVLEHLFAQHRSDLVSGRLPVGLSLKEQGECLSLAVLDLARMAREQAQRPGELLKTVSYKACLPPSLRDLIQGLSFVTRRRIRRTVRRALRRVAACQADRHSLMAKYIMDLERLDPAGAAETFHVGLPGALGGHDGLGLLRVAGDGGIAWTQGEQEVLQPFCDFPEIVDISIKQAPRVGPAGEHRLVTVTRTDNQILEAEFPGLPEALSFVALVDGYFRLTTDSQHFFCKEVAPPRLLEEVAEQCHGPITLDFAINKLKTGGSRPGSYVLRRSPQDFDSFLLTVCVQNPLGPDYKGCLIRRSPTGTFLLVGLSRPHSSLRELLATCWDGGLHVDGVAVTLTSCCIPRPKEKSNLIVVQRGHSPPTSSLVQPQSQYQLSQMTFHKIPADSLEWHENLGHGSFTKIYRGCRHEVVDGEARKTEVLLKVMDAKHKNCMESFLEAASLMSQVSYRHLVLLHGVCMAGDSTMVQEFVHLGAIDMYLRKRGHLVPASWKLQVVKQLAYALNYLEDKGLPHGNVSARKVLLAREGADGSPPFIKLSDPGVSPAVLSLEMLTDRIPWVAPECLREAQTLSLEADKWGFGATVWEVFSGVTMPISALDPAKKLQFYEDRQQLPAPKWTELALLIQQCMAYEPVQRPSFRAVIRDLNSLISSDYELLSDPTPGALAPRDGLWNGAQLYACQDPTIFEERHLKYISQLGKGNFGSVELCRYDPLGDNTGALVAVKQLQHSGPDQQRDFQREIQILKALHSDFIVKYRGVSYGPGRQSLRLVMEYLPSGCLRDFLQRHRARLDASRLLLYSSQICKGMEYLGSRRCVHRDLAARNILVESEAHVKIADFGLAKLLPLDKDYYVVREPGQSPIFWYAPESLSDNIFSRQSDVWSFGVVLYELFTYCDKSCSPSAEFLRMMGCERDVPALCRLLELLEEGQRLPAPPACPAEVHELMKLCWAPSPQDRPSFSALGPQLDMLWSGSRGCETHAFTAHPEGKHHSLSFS
Put plainly: JAK Caliper Enzyme Assay at 1 mM ATP. Type of data set: biochemical. The gist of the method:
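Test compounds were diluted in DMSO as an 11-point half-log series from a 600 μM top concentration (DMSO series, not final assay level). Enzyme amount and incubation time were set per enzyme prep to reach 20%-30% phosphorylation. Phosphorylated and unphosphorylated peptide were resolved by microfluidic separation.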

For `C=CC(=O)N1C[C@H](COCCC#N)C[C@H](Nc2ncnc3[nH]ccc23)C1` [Example 101, 3-{[(3R,5S)-1-Acryloyl-5-(7H-pyrrolo[2,3-d]pyrimidin-4-ylamino)piperidin-3-yl]methoxy}propanenitrile], the half-life at 1 μM in data set [1] stood at 1.9 h. Also, the values for the IC50 (in data set [2]; against JAK3 enzyme) were 703 nM and 28 nM, respectively.
The like results for `C=CC(=O)N1C[C@H](CN2CC[C@H](C#N)C2)C[C@H](Nc2ncnc3[nH]ccc23)C1` [Example 108, (S)-1-(((3S,5S)-5-((7H-pyrrolo[2,3-d]pyrimidin-4-yl)amino)-1-acryloylpiperidin-3-yl)methyl)pyrrolidine-3-carbonitrile] were, in that order, 2.23 h, 3480 nM and 136 nM.
For `C=CC(=O)N1CCN(c2cnc3[nH]cc(C(=O)N[C@H]4CCO[C@H]4C)c3n2)CC1(C)C` [Example 166, 3-({[2-(4-acryloyl-3,3-dimethylpiperazin-1-yl)-5H-pyrrolo[2,3-b]pyrazin-7-yl]carbonyl}amino)-2,5-anhydro-1,3,4-trideoxy-L-threo-pentitol], in that order: > 6 h, 1210 nM and 58 nM.
`C=CC(=O)N1CCC(Nc2cnc3[nH]cc(C(=O)NCC4CC4)c3n2)CC1` [Example 172, 2-[(1-acryloylpiperidin-4-yl)amino]-N-(cyclopropylmethyl)-5H-pyrrolo[2,3-b]pyrazine-7-carboxamide]: the half-life at 1 μM in data set [1] was 5.43 h. In addition, the figures for the IC50 (in data set [2]; at JAK3 enzyme) were 322 nM and 5 nM, respectively.
For `C=CC(=O)N1CCC(Nc2cnc3[nH]cc(C(=O)NCc4cccc(F)c4)c3n2)CC1` [Example 176, 2-[(1-acryloylpiperidin-4-yl)amino]-N-(3-fluorobenzyl)-5H-pyrrolo[2,3-b]pyrazine-7-carboxamide], in that order: 4.85 h, 318 nM and 3 nM.
For `C=CC(=O)N1CCC(Nc2cnc3[nH]cc(C(=O)NCCC4CC4)c3n2)CC1` [Example 178, 2-[(1-acryloylpiperidin-4-yl)amino]-N-(2-cyclopropylethyl)-5H-pyrrolo[2,3-b]pyrazine-7-carboxamide], in that order: 5.57 h, 360 nM and 6 nM.
As to `C=CC(=O)N1CCC(Nc2cnc3[nH]cc(C(=O)NCc4ccccc4)c3n2)CC1` [Example 187, 2-[(1-acryloylpiperidin-4-yl)amino]-N-benzyl-5H-pyrrolo[2,3-b]pyrazine-7-carboxamide], the half-life at 1 μM in data set [1] was > 6 h. Besides, the IC50 came to 240 nM in data set [2] and 6 nM at JAK3 enzyme.
The like results for `C=CC(=O)N1CCC(Nc2cnc3[nH]cc(C(=O)NCc4ccc(F)cc4)c3n2)CC1` [Example 188, 2-[(1-acryloylpiperidin-4-yl)amino]-N-(4-fluorobenzyl)-5H-pyrrolo[2,3-b]pyrazine-7-carboxamide] were, in that order, > 6 h, 913 nM and 6 nM.
For the compound `C=CC(=O)N1CCC(Nc2cnc3[nH]cc(C(=O)NCc4ccc(F)c(C#N)c4)c3n2)CC1` [Example 189, 2-[(1-acryloylpiperidin-4-yl)amino]-N-(3-cyano-4-fluorobenzyl)-5H-pyrrolo[2,3-b]pyrazine-7-carboxamide], the half-life at 1 μM in data set [1] was > 6 h. For the same compound, the results for the IC50 (in data set [2]; against JAK3 enzyme) were 1140 nM and 6 nM, respectively.
For the compound `C=CC(=O)N1CCC(Nc2cnc3[nH]cc(C(=O)NCc4ccccc4F)c3n2)CC1` [Example 196, 2-[(1-acryloylpiperidin-4-yl)amino]-N-(2-fluorobenzyl)-5H-pyrrolo[2,3-b]pyrazine-7-carboxamide], the half-life at 1 μM in data set [1] was > 6 h. Also, the IC50 in data set [2] was found to be 362 nM; at JAK3 enzyme, 5 nM.
Regarding `C=CC(=O)N1CCC(Oc2cnc3[nH]cc(C(=O)NC45CC(C4)C5)c3n2)CC1` [Example 200, 2-[(1-acryloylpiperidin-4-yl)oxy]-N-(bicyclo[1.1.1]pent-1-yl)-5H-pyrrolo[2,3-b]pyrazine-7-carboxamide], the half-life at 1 μM in data set [1] was > 6 h. Besides, the IC50 in data set [2] stood at 1520 nM; at JAK3 enzyme, 46 nM.
The like results for `C=CC(=O)N1CCC(Oc2cnc3[nH]cc(C(=O)N[C@@H](C)CC)c3n2)CC1` [Example 205, 2-[(1-acryloylpiperidin-4-yl)oxy]-N-[(2S)-butan-2-yl]-5H-pyrrolo[2,3-b]pyrazine-7-carboxamide] were, in that order, 4.17 h, 513 nM and 16 nM.
The like results for `C=CC(=O)N1CCC(Oc2cnc3[nH]cc(C(=O)NC(C)(C)CC)c3n2)CC1` [Example 209, 2-[(1-acryloylpiperidin-4-yl)oxy]-N-(2-methylbutan-2-yl)-5H-pyrrolo[2,3-b]pyrazine-7-carboxamide] were, in that order, 4.45 h, > 10000 nM and 64 nM.
For the compound `C=CC(=O)N1CCC(Oc2cnc3[nH]cc(C(=O)N[C@H](C)COC)c3n2)CC1` [Example 214, 2-[(1-acryloylpiperidin-4-yl)oxy]-N-[(2R)-1-methoxypropan-2-yl]-5H-pyrrolo[2,3-b]pyrazine-7-carboxamide], the half-life at 1 μM in data set [1] stood at 4.79 h. In addition, the IC50 amounted to 195 nM in data set [2] and 20 nM against JAK3 enzyme.
Turning to `C=CC(=O)N1CCC(Oc2cnc3[nH]cc(C(=O)NC4CCCC4(F)F)c3n2)CC1` (stereo not drawn) [Example 219, 2-[(1-acryloylpiperidin-4-yl)oxy]-N-(2,2-difluorocyclopentyl)-5H-pyrrolo[2,3-b)pyrazine-7-carboxamide], the half-life at 1 μM in data set [1] turned out to be 4.05 h. Also, the figures for the concentration for half-maximal inhibition (IC50) (in data set [2]; against JAK3 enzyme) were 889 nM and 25 nM, respectively.
For the compound `C=CC(=O)N1CCC(Oc2cnc3[nH]cc(C(=O)N[C@H]4CC[C@@H](F)C4)c3n2)CC1` [Example 225, 2-[(1-acryloylpiperidin-4-yl)oxy]-N-[(1S,3R)-3-fluorocyclopentyl]-5H-pyrrolo[2,3-b]pyrazine-7-carboxamide], the half-life at 1 μM in data set [1] is 3.93 h. Further, the half-maximal inhibitory concentration (IC50) in data set [2] is 772 nM; against JAK3 enzyme, 25 nM.
In the case of `C=CC(=O)N1CCC(Oc2cnc3[nH]cc(C(=O)N[C@H](C)CC)c3n2)CC1` [Example 227, 2-[(1-acryloylpiperidin-4-yl)oxy]-N-[(2R)-butan-2-yl]-5H-pyrrolo[2,3-b]pyrazine-7-carboxamide], in data set [1], the half-life at 1 μM is 4.5 h. Moreover, the figures for the IC50 (in data set [2]; on JAK3 enzyme) were 682 nM and 22 nM, respectively.
As for `C=CC(=O)N1CCC(Oc2cnc3[nH]cc(C(=O)N[C@@H](C)COC)c3n2)CC1` [Example 228, 2-[(1-acryloylpiperidin-4-yl)oxy]-N-[(2S)-1-methoxypropan-2-yl]-5H-pyrrolo[2,3-b]pyrazine-7-carboxamide], the half-life at 1 μM in data set [1] is 4.23 h. Further, the results for the IC50 (in data set [2]; at JAK3 enzyme) were 378 nM and 18 nM, respectively.
Take `C=CC(=O)N1CCC(Oc2cnc3[nH]cc(C(=O)N[C@@H]4CCC[C@H]4F)c3n2)CC1` [Example 229, 2-[(1-acryloylpiperidin-4-yl)oxy]-N-[(1R,2R)-2-fluorocyclopentyl]-5H-pyrrolo[2,3-b]pyrazine-7-carboxamide]: the half-life at 1 μM in data set [1] worked out at 5.93 h. For the same compound, the IC50 in data set [2] came to 2390 nM; against JAK3 enzyme, 60 nM.
Regarding `C=CC(=O)N1CCC(Oc2cnc3[nH]cc(C(=O)N[C@@H]4CCC[C@@H]4F)c3n2)CC1` [Example 230, 2-[(1-acryloylpiperidin-4-yl)oxy]-N-[(1R,2S)-2-fluorocyclopentyl]-5H-pyrrolo[2,3-b]pyrazine-7-carboxamide], in data set [1], the half-life at 1 μM was 5.85 h. Further, the IC50 was found to be 1710 nM in data set [2] and 34 nM at JAK3 enzyme.
